Experimental findings from PubChem BioAssay AID330 (DTP/NCI, 2004) are described below.

Values joined by “and” are separate entries in the source; they are usually repeats but may differ in a detail not shown here. Equal entries are not always repeated. Toxic doses and inconclusive results are not listed.

In this assay the test system is P388 leukemia ip, CD2F1 mice, survival T/C. In words: NCI In Vivo Anticancer Drug Screen. Data for tumor model P388 Leukemia (intraperitoneal) in CD2F1 (CDF1) mice. The settings on record: endpoint: median survival time, higher = longer survival. In a few lines: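 Mice carrying the transplanted tumor received test compound or vehicle. Survival was recorded in each group, and the value is the treated-group measurement divided by that of the vehicle-treated control group.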

[1] abbreviates: dose: 50.0 mg/kg/injection, schedule: Q01DX009 (ip), vehicle: Klucel (hydroxypropylcellulose) (HPC).
Where [2] appears, read: dose: 50.0 mg/kg/injection, schedule: Q01DX009 (ip), vehicle: saline.
Setting [3] is: dose: 100.0 mg/kg/injection, schedule: Q01DX009 (ip), vehicle: saline.
Where [4] appears, read: dose: 200.0 mg/kg/injection, schedule: Q01DX009 (ip), vehicle: saline.
[5] abbreviates: dose: 400.0 mg/kg/injection, schedule: Q01DX009 (ip), vehicle: saline.
Setting [6] is: dose: 50.0 mg/kg/injection, schedule: Q01DX009 (ip), vehicle: saline with Tween-80.
[7] abbreviates: dose: 100.0 mg/kg/injection, schedule: Q01DX009 (ip), vehicle: saline with Tween-80.
The mark [8] stands for this setting: dose: 50.0 mg/kg/injection, schedule: Q01DX005 (ip), vehicle: saline with Tween-80.
Where [9] appears, read: dose: 100.0 mg/kg/injection, schedule: Q01DX005 (ip), vehicle: saline with Tween-80.
Setting [10] is: dose: 200.0 mg/kg/injection, schedule: Q01DX005 (ip), vehicle: saline with Tween-80.

As to `Nc1ccc(C(=O)CCl)c(Cl)c1`, the T/C runs as follows: (dose: 12.5 mg/kg/injection, schedule: Q01DX009 (ip), vehicle: Klucel (hydroxypropylcellulose) (HPC)) 107 % of control; (dose: 25.0 mg/kg/injection, schedule: Q01DX009 (ip), vehicle: Klucel (hydroxypropylcellulose) (HPC)) 110 % of control; under setting [1], 110 % of control and 116 % of control.
For `CC(C)=CC1C(C(=O)OC23C=CC(CC2C)C3)C1(C)C` (stereo not given), the T/C runs as follows: under setting [2], 104 % of control; under setting [3], 98 % of control; under setting [4], 102 % of control.
Consider `CC(N)C(O)c1ccc(O)cc1` (stereo not given), for which the T/C under setting [2] is 102 % of control and 108 % of control; the T/C under setting [3] was 101 % of control; the T/C under setting [4] was 101 % of control and 108 % of control; the T/C under setting [5] is 87 % of control and 89 % of control.
With `CCN(CC)CC(=O)c1ccc(O)c(O)c1`, the T/C under setting [6] was 91 % of control; the T/C under setting [7] is 98 % of control and 106 % of control; the T/C (dose: 200.0 mg/kg/injection, schedule: Q01DX009 (ip), vehicle: saline with Tween-80) is 112 % of control and 123 % of control; the T/C (dose: 400.0 mg/kg/injection, schedule: Q01DX009 (ip), vehicle: saline with Tween-80) was 116 % of control and 117 % of control.
On to `C/C=C/C=c1/[nH]c(=O)/c(=C\C)[nH]c1=O`, for which the T/C is 100 % of control (dose: 50.0 mg/kg/injection, schedule: Q04DX003 (ip), vehicle: Klucel (hydroxypropylcellulose) (HPC)); 98 % of control (dose: 100.0 mg/kg/injection, schedule: Q04DX003 (ip), vehicle: Klucel (hydroxypropylcellulose) (HPC)); 90 % of control (dose: 200.0 mg/kg/injection, schedule: Q04DX003 (ip), vehicle: Klucel (hydroxypropylcellulose) (HPC)).
With `CCCCOP(O)(=S)OCCCC.[Eu]`, the T/C is, setting by setting: (dose: 100.0 mg/kg/injection, schedule: Q04DX002 (ip), vehicle: saline with Tween-80) 96 % of control; (dose: 200.0 mg/kg/injection, schedule: Q04DX002 (ip), vehicle: saline with Tween-80) 91 % of control; (dose: 400.0 mg/kg/injection, schedule: Q04DX002 (ip), vehicle: saline with Tween-80) 90 % of control.
Regarding `O=C(CN1CCCCC1)c1c(-c2ccccc2)[nH]c2ccccc12`, the T/C (dose: 100.0 mg/kg/injection, schedule: Q04DX003 (ip), vehicle: saline) is 108 % of control; the T/C (dose: 200.0 mg/kg/injection, schedule: Q04DX003 (ip), vehicle: saline) was 99 % of control; the T/C (dose: 400.0 mg/kg/injection, schedule: Q04DX003 (ip), vehicle: saline) was 93 % of control.
With `COC(=O)C(CSCc1ccccc1)NC(=O)CCNC(=O)c1ccccc1` (stereo not given), the T/C runs as follows: (dose: 12.5 mg/kg/injection, schedule: Q01DX009 (ip), vehicle: distilled water + Tween-80) 100 % of control; (dose: 25.0 mg/kg/injection, schedule: Q01DX009 (ip), vehicle: distilled water + Tween-80) 94 % of control; (dose: 50.0 mg/kg/injection, schedule: Q01DX009 (ip), vehicle: distilled water + Tween-80) 98 % of control; (dose: 100.0 mg/kg/injection, schedule: Q01DX009 (ip), vehicle: distilled water + Tween-80) 91 % of control; (dose: 200.0 mg/kg/injection, schedule: Q01DX009 (ip), vehicle: distilled water + Tween-80) 111 % of control.
For the molecule `CCOC(=O)C(=O)Nc1[nH]c(C)c(C)c1C#N`, the T/C is, setting by setting: (dose: 50.0 mg/kg/injection, schedule: Q01DX009 (ip), vehicle: saline + alcohol) 91 % of control; (dose: 100.0 mg/kg/injection, schedule: Q01DX009 (ip), vehicle: saline + alcohol) 96 % of control; (dose: 200.0 mg/kg/injection, schedule: Q01DX009 (ip), vehicle: saline + alcohol) 89 % of control.
Consider `COc1cc2c(cc1Cl)nc1c(=O)[nH]c(=O)nc-1n2CCN1CCCC1`, for which the T/C is, setting by setting: (dose: 12.5 mg/kg/injection, schedule: Q01DX005 (ip), vehicle: saline with Tween-80) 100 % of control; (dose: 25.0 mg/kg/injection, schedule: Q01DX005 (ip), vehicle: saline with Tween-80) 108 % of control; under setting [8], 111 % of control and 115 % of control; under setting [9], 116 % of control; under setting [10], 114 % of control.
On to `CCC(c1ccccc1)c1cc2c(cc1OC(C)=O)OCO2` (stereo not given), for which the T/C under setting [8] was 104 % of control, the T/C under setting [9] was 107 % of control and the T/C under setting [10] was 102 % of control.
As for `COC1C(Br)C(C)(OC)c2ccccc2N1C#N` (stereo not given), the T/C reads like this: under setting [1], 101 % of control; (dose: 100.0 mg/kg/injection, schedule: Q01DX009 (ip), vehicle: Klucel (hydroxypropylcellulose) (HPC)) 100 % of control; (dose: 200.0 mg/kg/injection, schedule: Q01DX009 (ip), vehicle: Klucel (hydroxypropylcellulose) (HPC)) 100 % of control.
Regarding `CC(C)(C)N(C/C=C/CN(Cc1ccccc1)Cc1ccccc1)C(C)(C)C`, the T/C under setting [6] is 87 % of control and the T/C under setting [7] was 95 % of control.
With `CN(C)CCNc1ccc(O)c2sc3ccccc3c(=O)c12`, the T/C runs as follows: (dose: 100.0 mg/kg/injection, schedule: Q04DX003 (ip), vehicle: saline with Tween-80) 94 % of control; (dose: 200.0 mg/kg/injection, schedule: Q04DX003 (ip), vehicle: saline with Tween-80) 90 % of control.
Regarding `CCCCNC(=O)OCc1ccc(NCCN(CC)CC)c2c(=O)c3ccccc3sc12`, the T/C was 105 % of control and 97 % of control (dose: 1.56 mg/kg/injection, schedule: Q01DX005 (ip), vehicle: distilled water + Tween-80); 102 % of control and 112 % of control and 119 % of control (dose: 3.12 mg/kg/injection, schedule: Q01DX005 (ip), vehicle: distilled water + Tween-80); 101 % of control and 111 % of control (dose: 6.25 mg/kg/injection, schedule: Q01DX005 (ip), vehicle: distilled water + Tween-80).
As for `CC1(C)OCC(N)[C@@H](O)CO1` (stereo not given in full), the T/C is 100 % of control (dose: 60.0 mg/kg/injection, schedule: Q01DX005 (ip), vehicle: saline); 96 % of control (dose: 120.0 mg/kg/injection, schedule: Q01DX005 (ip), vehicle: saline); 100 % of control (dose: 240.0 mg/kg/injection, schedule: Q01DX005 (ip), vehicle: saline).
With `C=C(C)C1CCC2(C)CC3C(=C)CC(O)C(O)C3(C)CCC12` (stereo not given), the T/C is 104 % of control (dose: 4.0 mg/kg/injection, schedule: Q01DX009 (ip), vehicle: Klucel (hydroxypropylcellulose) (HPC)); 101 % of control (dose: 8.0 mg/kg/injection, schedule: Q01DX009 (ip), vehicle: Klucel (hydroxypropylcellulose) (HPC)); 101 % of control (dose: 16.0 mg/kg/injection, schedule: Q01DX009 (ip), vehicle: Klucel (hydroxypropylcellulose) (HPC)); 104 % of control (dose: 32.0 mg/kg/injection, schedule: Q01DX009 (ip), vehicle: Klucel (hydroxypropylcellulose) (HPC)).
As for `NC(=O)CCC(N)C(=O)O` (stereo not given), the T/C (dose: 12.5 mg/kg/injection, schedule: Q01DX009 (ip), vehicle: saline with Tween-80) was 105 % of control; the T/C (dose: 25.0 mg/kg/injection, schedule: Q01DX009 (ip), vehicle: saline with Tween-80) was 119 % of control; the T/C under setting [6] was 112 % of control; the T/C under setting [2] was 113 % of control; the T/C under setting [3] was 101 % of control and 116 % of control; the T/C under setting [4] is 90 % of control and 109 % of control. Moreover, the T/C under setting [5] is 109 % of control.
On to `C[C@@H]1CCC[C@@H](NC(=O)N(CCCl)N=O)C1`, for which the T/C (dose: 18.75 mg/kg/injection, schedule: Q01DX009 (ip), vehicle: Klucel (hydroxypropylcellulose) (HPC)) was 176 % of control; the T/C (dose: 37.5 mg/kg/injection, schedule: Q01DX009 (ip), vehicle: Klucel (hydroxypropylcellulose) (HPC)) is 193 % of control; the T/C (dose: 75.0 mg/kg/injection, schedule: Q01DX009 (ip), vehicle: Klucel (hydroxypropylcellulose) (HPC)) is 249 % of control.
Regarding `O=C1OC(C(O)CO)/C(=N\O)C1O` (stereo not given), the T/C was 104 % of control under setting [2], 104 % of control under setting [3] and 111 % of control under setting [4].
As for `CC1OC(=O)C(C2OC2C)=CC1O` (stereo not given), the T/C is 97 % of control (dose: 50.0 mg/kg/injection, schedule: Q01DX005 (ip), vehicle: saline); 105 % of control (dose: 100.0 mg/kg/injection, schedule: Q01DX005 (ip), vehicle: saline); 105 % of control (dose: 200.0 mg/kg/injection, schedule: Q01DX005 (ip), vehicle: saline).
`CCOC(=O)CCN(CCN(C)C)c1cc(O)c2c(c1O)C(=O)c1ccccc1C2=O`: the T/C reads like this: under setting [8], 121 % of control; under setting [9], 120 % of control.
`COc1ccc(/C=N/NC(=O)CNC(=O)n2ccnc2)cc1`: the T/C under setting [8] was 100 % of control, the T/C under setting [9] was 92 % of control and the T/C under setting [10] is 91 % of control.
Regarding `Cc1ccc(S(=O)(=O)C(C)(C)C(O)c2ccccc2)cc1` (stereo not given), the T/C is, setting by setting: under setting [8], 100 % of control; under setting [9], 99 % of control; under setting [10], 92 % of control.
